Assay results published in PMC5902452, “In silico optimization of a guava antimicrobial peptide enables combinatorial exploration for peptide design” (Nature Communications, 2018).
≈ marks a conversion by molar mass, not a printed value. Peptide text beside a SMILES is read from it.

Experiments:
[1] = system: P. aeruginosa H1001 (fliC::luxCDABE); assay type: cell-based, Pseudomonas aeruginosa; settings: SPOT-synthesized unpurified crude peptide (~70% purity); bioluminescent engineered P. aeruginosa; BM2 medium; 4 h, 37 °C; reduction of luminescence; 200 to 3 μg mL−1 tested
Description: A peptide array composed of 20 peptides (15 guavanins, 4 Pg-AMP1 fragments, and magainin 2) was designed and synthesized by Kinexus Bioinformatics Corporation (Vancouver, BC). Peptides were produced in a standard mass of 80 μg by using cellulose support in SPOT technology. The crude synthetic peptides were obtained from cellulose membrane discs that had already been treated with ammonia gas to release the peptides from the membrane. Peptides were then dissolved overnight in distilled water and subsequently evaluated for their biological activities, as described below.
The antimicrobial activity of the synthesized peptides was evaluated against an engineered luminescent P. aeruginosa H1001 (fliC::luxCDABE) strain in 96-well microplates. Aqueous solutions of peptides released from the cellulose spots were diluted twofold in BM2 medium [62 mM potassium phosphate buffer pH 7; 2 mM MgSO4; 10 μM FeSO4; 0.4% (wt/vol) glucose] down the eight wells of a 96-well plate, achieving a final volume of 25 μL in each well. Subsequently, 50 μL of overnight culture of P. aeruginosa H1001 (fliC::luxCDABE) were subcultured in 5 mL of fresh LB media and grown until they reached an OD600 of 0.4. This growing bacteria culture was then diluted 4:100 (v/v) into fresh BM2 media and 25 μL of this diluted bacterial culture was transferred to the microplate wells containing 25 μL of peptide solution. The final peptide concentrations tested ranged from 200 to 3 μg mL^−1. The plates were incubated for 4 h at 37 °C with constant shaking at 50 rpm. Luminescence was measured on a Tecan […]luor Plus Microplate Reader (Tecan US, Morrisville, NC). The antimicrobial activity was evaluated by the ability of the peptides to reduce the luminescence of P. aeruginosa-lux strain compared to untreated cells. The AMP magainin 2 and the carbapenem meropenem were used as positive controls and distilled water was used as a negative control.

[2] = system: Pseudomonas aeruginosa ATCC 27853; assay type: cell-based; settings: ATCC 27853, 18 h
Description: (§2) Lysogeny Broth (LB) was used for cultures of Acinetobacter baumannii ATCC 19606, Enterococcus faecalis ATCC 29212, Escherichia coli ATCC 25922, Klebsiella pneumoniae ATCC 13883, Pseudomonas aeruginosa ATCC 27853, and S. aureus ATCC 25923. Brain Heart Infusion (BHI) broth was used for cultures of Listeria ivanovii Li 4pVS2 and Streptococcus pyogenes ATCC 19615. Yeast peptone dextrose (YPD) medium was used for Candida species (C. albicans ATCC 90028 and C. parapsilosis ATCC 22019). MH (Mueller Hinton) broth was used for suspend centrifuged culture of bacteria and yeasts in logarithmic phase to an A630 of 0.01 (~10^6 cfu mL^−1), except for S. pyogenes, L. ivanovii, and E. faecalis that were suspended in their respective growth medium. […] A microplate reader (UVM 340, Asys Hitech) was used to monitor the antimicrobial susceptibility by measuring the change in A630. […] Each experiment was performed in triplicate with positive (0.7% formaldehyde) and negative (without peptide) inhibition controls.

[3] = system: Staphylococcus aureus ATCC 25923; assay type: cell-based; settings: ATCC 25923, 18 h
Description: as §2

[4] = system: Enterococcus faecalis ATCC 29212; assay type: cell-based; settings: ATCC 29212, 18 h
Description: as §2

HEK-293 cells = assay: Cytotoxicity, MTT-based microassay; assay type: cell-based, human; settings: purified peptide, HEK-293, 72 h, 37 °C, 12.5–200 µM, mean of three independent experiments in triplicate, read-out: Active concentration (inhibitory concentration 50, IC50)
Description: HEK-293 cells were cultured in DMEM medium, and incubated at 37 °C in a humidified atmosphere of 5% CO2. Cell viability was quantified after peptide incubation using a methylthiazolyldiphenyl-tetrazolium bromide (MTT)-based microassay. […] Then, 10 µL of MTT (5 mg mL^−1 in PBS) was added to each well and the cells were further incubated for 4 h in the dark. The formazan crystals formed by mitochondrial reductases in intact cells are insoluble in aqueous solutions and precipitate. Formazan crystals were dissolved using a solubilization solution (40% dimethylformamide in 2% glacial acetic acid, 16% sodium dodecyl sulfate, pH 4.7) followed by 1 h incubation at 37 °C under shaking (150 rpm). Finally, the absorbance of the resuspended formazan was measured at 570 nm. Data were analyzed with GraphPad Prism® 5.0 software to determine the inhibitory concentration 50 (IC50), which corresponds to the peptide concentration producing 50% cell death. Results were expressed as the mean of three independent experiments performed in triplicate.

E. coli ATCC 25922 = assay: Membrane polarization assay with DiSC3(5); assay type: cell-based, Escherichia coli; settings: 12.5 µM (twofold above the MIC), 20 min, 37 °C
Description: When the cytoplasmic membrane is intact, the fluorescent probe DiSC3(5) accumulates into the cytoplasmic membrane and then aggregates, causing self-quenching of the fluorescence. In the presence of a membrane-depolarizing agent, DiSC3(5) is released into the medium, leading to an increase in fluorescence that can be monitored over time[59]. Briefly, exponentially growing bacteria were centrifuged (1000 × g, 10 min, 4 °C), washed with PBS, and resuspended in the same buffer to an A630 of 0.1; then 700 µL of bacteria were pre-incubated with 1 µM DiSC3(5) in the dark during 10 min at 37 °C, and then 100 µL of 1 mM KCl were added in order to equilibrate the cytoplasmic and external K^+ concentrations. […] Three independent experiments were performed and results correspond to a representative experiment with negative (PBS) and positive (melittin) controls.

E. coli 0157 = assay: Antibiofilm assay; assay type: cell-based, Escherichia coli
Description: (§1) Overnight cultures of microorganisms [E. coli 0157, methicillin-resistant S. aureus (MRSA), K. pneumoniae 1825971, or C. albicans clinical isolate obtained from a blood culture maintained at LACEN (Laboratório Central de Saúde do Distrito Federal, a Brazilian reference laboratory for clinical isolates in Brasília, Brazil)] grown in LB broth (BD Difco) were diluted 1 in 100 in LB and Todd-Hewitt broth (BD Difco) or BM2 minimal medium [62 mM potassium phosphate buffer, pH 7.0, 7 mM (NH4)2SO4, 2 mM MgSO4, 10 μM FeSO4, 0.5% glucose], and 100 μL per well was added into 96-well round-bottom microplates. Absorbance at 600 nm was used to assess the planktonic cell growth. Non-adherent planktonic cells were removed from microtiter wells and washed twice with deionized water. Adherent cells were stained with 0.1% crystal violet for 20 min. The microplate wells were washed twice with deionized water, air dried, and solubilized with 110 μL of 70% ethanol. […] Biofilm formation was assessed by measuring the absorbance at 600 nm using a microplate reader (Bio-Tek Instruments, Inc., USA). The microdilution method for cationic peptides was used to determine the MIC for planktonic cells. Three biological replicates were performed for each experiment involving eight technical replicates.

K. pneumoniae 1825971 = assay: Antibiofilm assay; assay type: cell-based, Klebsiella pneumoniae
Description: as §1

[5] = system: Listeria ivanovii Li4pVS2; settings: purified peptide; BHI broth, 18 h, 37 °C, A630; average of three independent experiments in triplicate
Description: as §2

human erythrocytes = assay: Hemolytic assay; settings: SPOT-synthesized crude peptides; human red blood cells in NaCl 0.85%, 1 h, 37 °C; hemoglobin release at 546 nm; highest concentration 200 μg mL−1; 100% of hemolysis was not observed
Description: Fresh human venous blood was collected from volunteers in Vacutainer collection tubes containing sodium heparin as an anticoagulant (BD Biosciences, Franklin Lakes, NJ). The blood was centrifuged applying 151 × g force (1500 rpm) and the serum was removed and the blood cells were replaced and washed three times with the same volume of sterile NaCl 0.85% solution. Concentrated red blood cells were diluted tenfold in NaCl 0.85% solution and then exposed at twofold dilutions of peptides for 1 h at 37 °C, at identical concentrations used for antimicrobial assays, in the ratio of 1:1 (v/v), achieving a final volume of 100 μL. The assay was carried out in 96-well polypropylene microtiter plates. The positive control wells contained 1% of Triton X-100, representing 100% cell lysis, and negative control wells contained sterile saline. Hemoglobin release was monitored chromogenically at 546 nm using a microplate reader.

SMILES: CC[C@H](C)[C@H](NC(=O)[C@H](CCCNC(=N)N)NC(=O)[C@H](Cc1ccc(O)cc1)NC(=O)CNC(=O)[C@H](Cc1ccc(O)cc1)NC(=O)[C@H](CCCNC(=N)N)NC(=O)[C@H](CC(C)C)NC(=O)[C@H](C)NC(=O)[C@H](CCC(N)=O)NC(=O)[C@H](CCC(=O)O)NC(=O)[C@@H](NC(=O)[C@H](CCC(N)=O)NC(=O)[C@H](CCCNC(=N)N)NC(=O)[C@H](CCSC)NC(=O)[C@H](Cc1ccc(O)cc1)NC(=O)[C@H](CCC(N)=O)NC(=O)[C@@H](N)CCCNC(=N)N)[C@@H](C)CC)C(=O)N[C@@H](CO)C(=O)N[C@@H](CCCNC(=N)N)C(=O)N[C@@H](CCCNC(=N)N)C(N)=O [Guavanin 2] (H-RQYMRQIEQALRYGYRISRR-NH2)
- MIC [1]: 6.25 µg/mL (≈ 2.36 µM)
- Active concentration (MIC) [2]: 25 µM
- Active concentration (MIC) [3]: 100 µM
- Active concentration (MIC) [4]: >100 µM
- IC50 (HEK-293 cells): > 200 µM
- DiSC3(5) fluorescence change (membrane potential) (E. coli ATCC 25922): decrease in DiSC3(5) fluorescence
- antibiofilm activity (E. coli 0157): only able to reduce C. albicans biofilms
- antibiofilm activity (K. pneumoniae 1825971): only able to reduce C. albicans biofilms
- Active concentration (MIC) [5]: 50 µM
- Hemolysis (human erythrocytes): > 200 µg/mL
